Tests used:
[1] = tested on: PSA and AR expression in LNCaP cells; test: Western blot of PSA and AR expression in DHT-treated LNCaP cells; assay type: cell-based, human; details: 10 nM DHT, 24 h
Description: The AR suppressing activity of HDHS was also examined in LNCaP cells, another androgen-dependent PCa cell line. […] Expression of endogenous PSA in treated cells, as a measure of cellular response to androgen, and AR activity were detected by western blot with anti-PSA and anti-AR antibodies. Protein levels (relative to actin; listed below the first two blots) were quantitatively analyzed with Chemigenius (Biolabo). The blots shown in FIG. 2B are representative of three independent experiments.

AR-LBD = molecular target: T1, AR-LBD (Homo sapiens, UniProt P10275); test: One-hybrid assay (GBD-AR-LBD) in 22Rv1 cells; assay type: cell-based; details: 10 nM DHT, 20 h
T1 construct: expressed in transfected cells; host or cells: 22Rv1
T1 sequence (P10275 669-900 limits assumed): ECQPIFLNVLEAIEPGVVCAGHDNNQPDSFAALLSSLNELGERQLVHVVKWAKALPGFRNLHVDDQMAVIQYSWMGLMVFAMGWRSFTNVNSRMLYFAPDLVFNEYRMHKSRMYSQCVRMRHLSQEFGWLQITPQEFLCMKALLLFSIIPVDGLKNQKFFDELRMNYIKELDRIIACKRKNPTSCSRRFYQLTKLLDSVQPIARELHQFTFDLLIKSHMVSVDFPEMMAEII
Description: The molecular mechanism whereby HDHS represses AR activity was analyzed by the following experiments. […] The transfected cells were treated with vehicle or various compounds for another 20 h.

[2] = molecular target: T2, AR-LBD interaction with the full-length AR (Homo sapiens, UniProt P10275); test: Two-hybrid interaction assay in PC-3 cells; assay type: cell-based; details: 20 h
T2 construct: expressed in transfected cells; host or cells: PC-3
T2 sequence (P10275 669-900 limits assumed): T1 sequence (P10275 669-900 limits assumed)
Description: Second, the AR-LBD interaction with the full-length AR can be detected by a two-hybrid interaction assay in PC-3 cells through transfection of GBD-AR-LBD and AR fused with the VP16 activation domain (AR-VP16). […] The transfected cells were treated with vehicle or various compounds for another 20 h. Luciferase activity was measured using the luciferase reporter gene assay system (Promega, Madison, Wis.) and normalized against respective Renilla luciferase values.

22Rv1 cells [3] = test: MTT cell viability; assay type: cell-based, human; details: 22Rv1, concentrations above 10 μM, 48 h
Description: (§1) The effects of HDHS on cell viability in various PCa cell lines including androgen-dependent LNCaP, androgen-responsive 22Rv1 cells, and androgen-independent PC-3 cells were tested and compared with untransformed fibroblast NIH-3T3 cells. PCa or NIH-3T3 cells (1×10^4 cells) were seeded into 96-well microtiter plates with 10% FBS culture medium. After 24 h, cells were incubated in 10% FBS medium containing different concentrations of HDHS or equivalent amounts of vehicle alone as control for 48 h. Cell viability was then determined by MTT assay, which quantitatively measures the metabolic activity of living cells.

LNCaP cells [4] = test: MTT cell viability; assay type: cell-based, human; details: concentrations above 10 μM, 48 h
Description: as §1

PC-3 cells [5] = test: MTT cell viability; assay type: cell-based, human; details: PC-3, concentrations above 10 μM, 48 h, versus LNCaP and 22Rv1
Description: as §1

LNCaP cells [6] = test: Cell cycle distribution by propidium iodide flow cytometry; assay type: cell-based, human; details: 48 h
Description: (§2) The cell cycle of treated cells was examined by flow cytometry after cellular staining with propidium iodide. 5×10^5 cells were seeded into 6-well multidishes with 10% FBS culture medium for 48 h. […] Cells were trypsinized thereafter, washed twice with cold PBS, and centrifuged. The pellet was suspended in cold PBS and 1 mL of 70% ethanol at 4° C. overnight, washed twice with cold PBS, and digested with RNase (100 μg/mL final concentration) and stained with propidium iodide (10 μg/mL final concentration) for 30 min and analyzed by flow cytometry (EPICS XL-MCL, Beckman Coulter, Inc., Fullerton, Calif.).

22Rv1 cells [7] = test: as above; assay type: cell-based, human; details: 48 h
Description: as §2

PC-3 cells [8] = test: as above; assay type: cell-based, human; details: 48 h
Description: as §2

22Rv1 cells [9] = test: Apoptosis by nucleosome release (cytoplasmic DNA fragmentation); assay type: cell-based, human; details: 22Rv1, 5-10 μM, 24 h
Description: A, Apoptosis of cytoplasmic DNA fragmentation in different cell lines treated with vehicle or indicated concentrations of HDHS for 24 h. Difference between the indicated pair of treatments was tested for statistic significance as marked. *, P≦0.05; **, P≦0.01.
In light of the increase of sub-G1 populations by HDHS, apoptosis in treated cells was further analyzed via measurement of nucleosome release in PCa cells.

LNCaP cells [10] = test: Western blot of caspases, PARP, p53 and Bcl-xL; assay type: cell-based, human; details: 10 μM
Description: During apoptosis, various caspases are activated which are involved in the cleavage and […] a range of cellular substrates, including […] the DNA repair enzyme PARP (Herceg Z et al., Mol Cell Biol 1999;10:5124-33; Okada H et al., Nat Rev Cancer 2004; 4:592-603). In the presence of 10 μM HDHS, PARP cleavage was observed, and at the same time caspase-3 and -7 were activated by proteolytic cleavage (FIG. 4B, lane 5). […] In contrast, activation of caspase-3 and -7 or cleavage of PARP were not detected in PC-3 cells treated with 10 μM HDHS for 24 h (FIG. 4B, lane 10). Tumor suppressor p53 is a control for the G1 checkpoint and cell apoptosis, and LNCaP cells express wild-type p53 (van Bokhoven A et al., Prostate 2003; 57:205-25).

LNCaP cells [11] = test: Morphology of treated cells; details: 10 to 50 μM, 48 h
Description: (§3) The long-term effect of HDHS on the malignant growth of AR-dependent (22Rv1, and LNCaP) and AR-independent (PC-3) PCa cells was examined by colony-forming growth assay.

22Rv1 cells [12] = test: Morphology of treated cells; details: 22Rv1, 10 to 50 μM, 48 h
Description: as §3

PC-3 cells [13] = test: Morphology of treated cells; details: PC-3, up to 50 μM
Description: as §3

CC(C)c1cc2c(cc1O)[C@@]1(C)CCCC(C)(C)C1=C(O)C2=O [Compound 2, 6,12-dihydroxyabieta-5,8,11,13-tetraen-7-one]
AR activation of PSA expression by DHT ([1]; 10 μM): completely abolished
protein levels of AR ([1]; 10 μM): fell to basal level
protein levels of AR ([1]; 2.5 or 5 μM): not significantly altered
effect on DHT-induction of AR-LBD (one-hybrid luciferase) (AR-LBD): inhibited the AR-LBD dose-dependently
effect on DHT-induced two-hybrid interaction [2]: competitively inhibited
cell viability (MTT) (22Rv1 cells [3]): strongly reduced cell viability
cell viability (MTT) (LNCaP cells [4]): strongly reduced cell viability
cell viability (MTT) (PC-3 cells [5]): far less pronounced
G0-G1 phase cell population (LNCaP cells [6]; 2.5 μM): 62.6 ± 2.8 %
G2-M phase cell population (LNCaP cells [6]; 2.5 μM): 21.1 ± 2.4 %
S phase cell population (LNCaP cells [6]; 2.5 μM): 11.5 ± 2.1 %
Sub-G1 phase cell population (LNCaP cells [6]; 2.5 μM): 0.8 ± 0.4 %
G0-G1 phase cell population (LNCaP cells [6]; 5 μM): 66.9 ± 2.0 %
G2-M phase cell population (LNCaP cells [6]; 5 μM): 18.7 ± 3.5 %
S phase cell population (LNCaP cells [6]; 5 μM): 8.1 ± 1.8 %
Sub-G1 phase cell population (LNCaP cells [6]; 5 μM): 3.9 ± 0.7 %
G0-G1 phase cell population (LNCaP cells [6]; 10 μM): 45.1 ± 3.1 %
G2-M phase cell population (LNCaP cells [6]; 10 μM): 20.2 ± 2.1 %
S phase cell population (LNCaP cells [6]; 10 μM): 6.8 ± 2.4 %
Sub-G1 phase cell population (LNCaP cells [6]; 10 μM): 24.3 ± 3.1 %
G0-G1 phase cell population (22Rv1 cells [7]; 22Rv1, 2.5 μM): 54.5 ± 2.5 %
G2-M phase cell population (22Rv1 cells [7]; 22Rv1, 2.5 μM): 24.8 ± 2.4 %
S phase cell population (22Rv1 cells [7]; 22Rv1, 2.5 μM): 11.2 ± 1.9 %
Sub-G1 phase cell population (22Rv1 cells [7]; 22Rv1, 2.5 μM): 2.2 ± 0.8 %
G0-G1 phase cell population (22Rv1 cells [7]; 22Rv1, 5 μM): 57.9 ± 1.9 %
G2-M phase cell population (22Rv1 cells [7]; 22Rv1, 5 μM): 23.7 ± 2.7 %
S phase cell population (22Rv1 cells [7]; 22Rv1, 5 μM): 8.0 ± 1.4 %
Sub-G1 phase cell population (22Rv1 cells [7]; 22Rv1, 5 μM): 3.8 ± 0.9 %
G0-G1 phase cell population (22Rv1 cells [7]; 22Rv1, 10 μM): 48.4 ± 2.9 %
G2-M phase cell population (22Rv1 cells [7]; 22Rv1, 10 μM): 24.5 ± 2.0 %
S phase cell population (22Rv1 cells [7]; 22Rv1, 10 μM): 5.7 ± 2.2 %
Sub-G1 phase cell population (22Rv1 cells [7]; 22Rv1, 10 μM): 14.4 ± 3.7 %
G0-G1 phase cell population (PC-3 cells [8]; PC-3, 2.5 μM): 52.7 ± 2.0 %
G2-M phase cell population (PC-3 cells [8]; PC-3, 2.5 μM): 24.9 ± 2.7 %
S phase cell population (PC-3 cells [8]; PC-3, 2.5 μM): 19.2 ± 1.0 %
Sub-G1 phase cell population (PC-3 cells [8]; PC-3, 2.5 μM): 2.3 ± 0.7 %
G0-G1 phase cell population (PC-3 cells [8]; PC-3, 5 μM): 55.9 ± 2.9 %
G2-M phase cell population (PC-3 cells [8]; PC-3, 5 μM): 19.5 ± 2.9 %
S phase cell population (PC-3 cells [8]; PC-3, 5 μM): 18.8 ± 1.1 %
Sub-G1 phase cell population (PC-3 cells [8]; PC-3, 5 μM): 2.8 ± 0.9 %
G0-G1 phase cell population (PC-3 cells [8]; PC-3, 10 μM): 58.2 ± 2.8 %
G2-M phase cell population (PC-3 cells [8]; PC-3, 10 μM): 19.2 ± 3.2 %
S phase cell population (PC-3 cells [8]; PC-3, 10 μM): 18.0 ± 1.9 %
Sub-G1 phase cell population (PC-3 cells [8]; PC-3, 10 μM): 2.1 ± 0.6 %
apoptosis (nucleosome release) (22Rv1 cells [9]): significantly induced
PARP cleavage (LNCaP cells [10]): observed
caspase-3 and -7 proteolytic cleavage (LNCaP cells [10]): activated
decrease of anti-apoptotic regulator Bcl-xL level (LNCaP cells [10]; 24 h): ~50%
increase in p53 (LNCaP cells [10]; 24 h): 3 fold
morphology of treated cells (LNCaP cells [11]): cell rounding and surface blebbing
morphology of treated cells (22Rv1 cells [12]): cell rounding and surface blebbing
morphology of treated cells (PC-3 cells [13]): only cell rounding
